The results in this text go back to PMC8472287, “Betulinic Acid Decorated with Polar Groups and Blue Emitting BODIPY Dye: Synthesis, Cytotoxicity, Cell-Cycle Analysis and Anti-HIV Profiling” (Biomedicines, 2021).

Where a name gives a salt, the structure may show the parent alone. Read-outs that look alike come from different tables or passages of the source.

Data set [1] can be described thus: in vitro. Particulars: human.
Data set [2] relates to VSV-G pseudotyped HIV-1 particles. Kind of data set: microbe, parasite or virus in culture. The settings on record: for IC50: read-out: IC50i (50% infection inhibition). Type of data set: cell-based.
In data set [3] the test system is entire cell line panel.
The subject of data set [4] is HCT116p53−/−. Kind of data set: MTS cytotoxicity assay, HCT116p53−/−. Type of data set: cell-based. Particulars: Homo sapiens, HCT116-p53-null, 72 h, HCT116p53−/− (null p53 gene), 3-day incubation. The text has this: (§1) All cells (if not indicated otherwise) were purchased from the American Tissue Culture Collection (ATCC; Manassas, VA, USA). The highly chemosensitive CCRF-CEM line is derived from T lymphoblastic leukaemia, K562 represent cells of chronic myelogenous leukaemia. Colorectal adenocarcinoma HCT116 cell line and its p53 gene knockout counterpart (HCT116p53−/−, Horizon Discovery Ltd., Cambridge, UK) were used as models to assess the impact of p53 deficiency on cell line sensitivity. A549 cells are derived from lung adenocarcinoma and U2OS from human osteosarcoma. CEM-DNR and K562-Tax are well-characterized daunorubicin and paclitaxel-resistant sublines of CCRF-CEM and K562. The CEM-DNR resistant cells overexpress the P-glycoprotein and LRP protein, the K562-Tax overexpress P-glycoprotein but is losing the expression of LRP, which is present at parental K562 cell line. P-glycoprotein belongs to the ABC transporters’ family and is involved in the primary and acquired multidrug resistance phenomenon by the efflux of toxic compounds, LRP protein is involved in the lysosomal degradation. MRC-5 and BJ cell lines were used as a non-tumour control and represent human fibroblasts. The cells were maintained in Nunc/Corning 80 cm^2 plastic tissue culture flasks and cultured in cell culture medium according to ATCC or Horizon recommendations (DMEM/RPMI 1640 with 5 g/L-glucose, 2 mM glutamine, 100 U/mL penicillin, […] streptomycin, 10% fetal calf serum, and NaHCO3).
(§2) To perform the cytotoxicity MTS assay, cell suspensions were prepared and diluted according to the cell type and the expected target cell density (25,000–35,000 cells/mL) based on cell growth characteristics. Cells were added by an automatic pipettor (30 μL) into 384 well microtiter plates. All tested compounds were dissolved in 100% DMSO and four-fold dilutions of the intended test concentration were added in 0.15 μL aliquots at time zero to the microtiter plate wells by the echo-acoustic liquid handler Echo550 (Labcyte, San Jose, CA, USA). The experiments were performed in technical duplicates and at least three biological replicates. The cells were incubated with the tested compounds for 72 h at 37 °C, in a 5% CO2 atmosphere at 99% humidity. At the end of the incubation period, the cells were assayed by using the MTS test. Aliquots (5 µL) of the MTS stock solution were pipetted into each well and incubated for an additional 1–4 h. After this incubation period, the optical density (OD) was measured at 490 nm with an Envision microplate reader (Perkin Elmer, Waltham, Massachusetts, USA). Tumour cell survival (TCS) was calculated using the following equation: TCS = (ODdrug-exposed well/mean ODcontrol wells) × 100%.

In data set [5] the test system is HCT116. Description: MTS cytotoxicity assay, HCT116. Type of data set: cell-based. Particulars: Homo sapiens, HCT-116, 72 h, 3-day incubation.
Text: as §1, §2

Data set [6] deals with U2OS. Description: MTS cytotoxicity assay, U2OS. Particulars: Homo sapiens, 72 h, 3-day incubation. Type of data set: cell-based.
Text: as §1, §2

Data set [7] deals with K562-Tax. Description: MTS cytotoxicity assay, K562-Tax. Type of data set: cell-based. The settings on record: Homo sapiens, 72 h, K562-Tax (paclitaxel-resistant), 3-day incubation.
Text: as §1, §2

For data set [8], the system named is A549. Kind of data set: MTS cytotoxicity assay, A549. Type of data set: cell-based. The settings on record: Homo sapiens, 72 h, 3-day incubation.
Text: as §1, §2

Data set [9] relates to MRC-5. Description: MTS cytotoxicity assay, MRC-5. Type of data set: cell-based. The settings on record: Homo sapiens, MRC5, 72 h, MRC-5 normal fibroblasts, 3-day incubation.
Text: as §1, §2

Data set [10] concerns CCRF-CEM. Kind of data set: MTS cytotoxicity assay, CCRF-CEM. Type of data set: cell-based. The settings on record: Homo sapiens, 72 h, 3-day incubation.
Text: as §1, §2

Data set [11] has as its system K562. Description: MTS cytotoxicity assay, K562. Type of data set: cell-based. Particulars: Homo sapiens, 72 h, 3-day incubation.
Text: as §1, §2

Data set [12] relates to BJ. Kind of data set: MTS cytotoxicity assay, BJ. Particulars: Homo sapiens, 72 h, BJ normal fibroblasts, 3-day incubation. Type of data set: cell-based.
Text: as §1, §2

Data set [13] deals with CEM-DNR. Description: MTS cytotoxicity assay, CEM-DNR. The settings on record: Homo sapiens, 72 h, CEM-DNR (daunorubicin resistant), 3-day incubation. Type of data set: cell-based.
Text: as §1, §2

In data set [14] the test system is CA-SP1 processing of HIV-1 Gag polyprotein. Kind of data set: Western blot of released virions with anti-HIV-1 CA antibody. Type of data set: cell-based.
The mark [15] stands for this setting: Human immunodeficiency virus 1, HEK293, 48 h.

As for `C=C(C)[C@@H]1CC[C@]2(C(=O)NCCCN=[N+]=[N-])CC[C@]3(C)[C@H](CC[C@@H]4[C@@]5(C)CC[C@H](OC(=O)CCNC6=C7C=CC=[N+]7[B-](F)(F)n7cccc76)C(C)(C)[C@@H]5CC[C@]43C)[C@@H]12` [Compound 5, (3β)-N-(3-Azidopropyl)-3-[N´-(4,4-difluoro-4-bora-3a,4a-diaza-s-indacene-8-yl)-β-alanyl]-oxy-lup-20(29)-ene-28-amide], the IC50 in [1] was greater than 40 µM; in data set [2] (setting [15]) it was greater than 50 µM. For the same molecule, in data set [2], the “anti-HIV-1 activity (in words)” value is on record as “did not exhibit any potent anti-HIV-1 activity”. Also, the “cytotoxic effect in the cell line panel (in words)” value (from here on “cytotoxic effect”) in [3] is reported as “did not induce any cytotoxic effect”.

In the case of `C=C(C)[C@@H]1CC[C@]2(C(=O)NCCCN=[N+]=[N-])CC[C@]3(C)[C@H](CC[C@@H]4[C@@]5(C)CC[C@H](O)C(C)(C)[C@@H]5CC[C@]43C)[C@@H]12` [Compound 1, (3β)-N-(3-Azidopropyl)-3-hydroxylup-20(29)-ene-28-amide], the IC50 in data set [4] is greater than 50 µM; in [5], greater than 50 µM; in [6], 29 µM; in data set [1] it was greater than 40 µM; in [7], 10.6 µM; in [8] it was greater than 50 µM. The IC50 was greater than 50 µM in data set [2] (setting [15]); greater than 50 µM in [9]; 8.98 µM in [10]; greater than 50 µM in [11]; greater than 50 µM in data set [12]; 16.8 µM in [13]. Besides, the “anti-HIV-1 activity (in words)” value in [2] is on record as “did not exhibit any potent anti-HIV-1 activity”. The “cytotoxic effect” value in data set [3] was “activity only against selected cell lines”.

Regarding `C=C(C)[C@@H]1CC[C@]2(C(=O)NCCCNC(=O)OC(C)(C)C)CC[C@]3(C)[C@H](CC[C@@H]4[C@@]5(C)CC[C@H](O)C(C)(C)[C@@H]5CC[C@]43C)[C@@H]12` [Compound 7, Tert-butyl-(3-{[(3β)-3-hydroxy-28-oxolup-20(29)-ene-28-yl]amino}propyl)-carbamate], the IC50 in data set [4] is greater than 50 µM; in data set [5], greater than 50 µM; in [6] it was 18.4 µM; in [1], greater than 40 µM; in [7], greater than 50 µM; in data set [8], 21.3 µM. Besides, the IC50 in data set [2] (setting [15]) is greater than 50 µM; in data set [9], 17.6 µM; in data set [10] it was greater than 50 µM; in data set [11] it was greater than 50 µM; in data set [12] it was 20.7 µM; in [13], greater than 50 µM. Also, the “anti-HIV-1 activity (in words)” value in data set [2] is “did not exhibit any potent anti-HIV-1 activity”. Also, the “cytotoxic effect” value in data set [3] is recorded as “activity only against selected cell lines”.

Turning to `C=C(C)[C@@H]1CC[C@]2(C(=O)N3CCN(CCNC4=C5C=CC=[N+]5[B-](F)(F)n5cccc54)CC3)CC[C@]3(C)[C@H](CC[C@@H]4[C@@]5(C)CC[C@H](O)C(C)(C)[C@@H]5CC[C@]43C)[C@@H]12` [Compound 15, (3β)-28-{4-[N-(4,4-Difluoro-4-bora-3a,4a-diaza-s-indacene-8-yl)-2-aminoethyl]piperazine-1-yl}-3-hydroxylup-20(29)-ene-28-one], the IC50 is greater than 40 µM in data set [1] and greater than 50 µM in data set [2] (setting [15]). Further, the “anti-HIV-1 activity (in words)” value in [2] is on record as “did not exhibit any potent anti-HIV-1 activity”. The “cytotoxic effect” value in [3] is “did not induce any cytotoxic effect”.

With `C=C(C)[C@@H]1CC[C@]2(C(=O)NCCCN)CC[C@]3(C)[C@H](CC[C@@H]4[C@@]5(C)CC[C@H](OC(=O)CC(C)(C)C(=O)O)C(C)(C)[C@@H]5CC[C@]43C)[C@@H]12` [Compound 9, 4-{[(3β)-28-[(3-Aminopropyl)amino]-28-oxolup-20(29)-ene-3-yl]oxy}-2,2-dimethyl-4-oxo-butanooic acid hydrochloride], the IC50 in [4] was greater than 50 µM; in data set [5] it was greater than 50 µM; in data set [6], greater than 50 µM; in data set [1], greater than 40 µM; in [7], greater than 50 µM; in data set [8] it was greater than 50 µM. Moreover, the IC50 in data set [2] (setting [15]) was 14 µM; in [9] it was greater than 50 µM; in data set [10], 22.5 µM; in data set [11], greater than 50 µM; in data set [12], greater than 50 µM; in data set [13] it was greater than 50 µM. In addition, the “CA forms identified in released viruses (CA-SP1 processing)” value in data set [14] is recorded as “not only fully processed p24 CA, but also p25 CA-SP1 protein”. Further, the “cytotoxic effect” value in data set [3] was “inactive”.

For `C=C(C)[C@@H]1CC[C@]2(C(=O)N3CCN(CCNC(=O)OC(C)(C)C)CC3)CC[C@]3(C)[C@H](CC[C@@H]4[C@@]5(C)CC[C@H](O)C(C)(C)[C@@H]5CC[C@]43C)[C@@H]12` [Compound 13, Tert-butyl-(2-{4-[(3β)-3-hydroxy-28-oxolup-20(29)-ene-28-yl]piperazine-1-yl}ethyl)-carbamate], the IC50 in data set [4] was 4.99 µM; in data set [5], 6.02 µM; in data set [6] it was 4.16 µM; in data set [1], greater than 40 µM; in data set [7] it was 8.77 µM; in data set [8], 5.15 µM. In addition, the IC50 in [2] (setting [15]) is greater than 50 µM; in [9] it was 5.18 µM; in data set [10] it was greater than 50 µM; in data set [11] it was 5.09 µM; in data set [12], 5.36 µM; in data set [13] it was 4.76 µM. Besides, the “anti-HIV-1 activity (in words)” value in data set [2] was “did not exhibit any potent anti-HIV-1 activity”. Besides, in data set [3], the “cytotoxic effect” value is listed as “high cytotoxicity”.

Turning to `C=C(C)[C@@H]1CC[C@]2(C(=O)N3CCN(CCNC(=O)OC(C)(C)C)CC3)CC[C@]3(C)[C@H](CC[C@@H]4[C@@]5(C)CC[C@H](OC(=O)CC(C)(C)C(=O)O)C(C)(C)[C@@H]5CC[C@]43C)[C@@H]12` [Compound 16, 4-{[(3β)-28-(4-{2-[(Tert-butoxycarbonyl)amino]ethyl}piperazine-1-yl)-28-oxolup-20(29)-ene-3-yl]oxy}-2,2-dimethyl-4-oxobutanoic acid], the IC50 in data set [4] is 44.8 µM; in [5], 46.6 µM; in data set [6], 44.6 µM; in [1], greater than 40 µM; in data set [7], greater than 50 µM; in [8], 44.9 µM. The IC50 in data set [2] (setting [15]) is less than 10 µM; in data set [2] it was 9.1 µM; in [9] it was 44.6 µM; in [10], greater than 50 µM; in data set [11], 47.9 µM; in data set [12] it was 47.6 µM. The IC50 in data set [13] was greater than 50 µM. Also, the “CA forms identified in released viruses (CA-SP1 processing)” value in [14] is listed as “not only fully processed p24 CA, but also p25 CA-SP1 protein”. For the same molecule, the “cytotoxic effect” value in [3] is on record as “did not induce any cytotoxic effect”.

With `C=C(C)[C@@H]1CC[C@]2(C(=O)O)CC[C@]3(C)[C@H](CC[C@@H]4[C@@]5(C)CC[C@H](OC(=O)CC(C)(C)C(=O)O)C(C)(C)[C@@H]5CC[C@]43C)[C@@H]12` [BT, 3-O-(3,3-dimethylsuccinyl) betulinic acid, reference compound], the IC50 in data set [4] is 18.2 µM; in data set [5] it was 14.2 µM; in [6] it was 27.6 µM; in [7] it was 22 µM; in data set [8], 23.1 µM; in data set [9], greater than 50 µM. In addition, the IC50 in data set [10] is 12.8 µM; in data set [11], 23.6 µM; in data set [12], greater than 50 µM; in data set [13], 22.2 µM. Besides, in data set [3], the “cytotoxic effect” value is “weak or medium cytotoxic effect”.
